Experimental data: paper PMC3034772 (Pharmaceutical research, 2010)
Several values for one entry are separate records, joined by “and”; a condition that tells them apart may be missing. Equal entries are not always repeated. Where two headings read alike, the source gives them in different places.

Experiments:
[1] = Charge class Q, dominant calculated charge state at pH 7.4; format: physicochemical
[2] = In combo PAMPA-BBB model, calculated log Po in situ
[3] = PAMPA; for Pm^7.4: pH 7.4
[4] = cited from earlier work
physchem [5] = assay: physchem
[6] = mouse, in vivo; cited from earlier work
[7] = in vivo; cited from earlier work
[8] = PAMPA; for Pm^7.4: pH 7.4; remark: listed apart in the source
physchem [9] = assay: physchem; remark: listed apart in the source
[10] = dominant calculated concentration fraction of the drug in a charge state
[11] = difference observed minus calculated, external set, no efflux inhibition

| SMILES | Q (charge class) [1, 10] | pKa (physchem [5]) | log PABL [8] | log Po [8] | Pm^7.4 [8] | log Ppara [8] | obs–calc (log Po^in situ) ([2]; no efflux inhibition) | further results |
| --- | --- | --- | --- | --- | --- | --- | --- | --- |
| CC(C)(C)NC(=O)[C@@H]1CN(Cc2cccnc2)CCN1C[C@@H](O)C[C@@H](Cc1ccccc1)C(=O)N[C@H]1c2ccccc2C[C@H]1O [Indinavir] | 0 |  |  |  |  |  |  | obs–calc (log Po^in situ) [2, 11]: −0.4; obs–calc (log Po^in situ) ([2]; efflux inhibition mdr1a(−/−)): 0.3; log Po [3]: −5.17; pKa ([4]; ref [11]): 4.91 |
| O=c1[nH]c2ccccc2n1CCCN1CCC(n2c(=O)[nH]c3cc(Cl)ccc32)CC1 [Domperidone] | + | 9.38 |  |  |  |  |  | PS [6]: 16 10^−4 mLg^−1s^−1; PS [7]: 5 10^−4 mLg^−1s^−1; log PS [7]: −3.29 |
| N[C@@H](Cc1ccc(O)c(O)c1)C(=O)O [L-DOPA] | ± |  | −4.47 | −7.81 | 0.01 |  |  | obs–calc (log Po^in situ) [2, 11]: 0.7 and 0.9; pKa ([4]; ref [39]): 8.77 |
| NNCCc1ccccc1 [Phenelzine] | + | 7.66 | −4.58 | −2.20 | 2236 | −6.86 |  | obs–calc (log Po^in situ) [2, 11]: −1.9 |
| COc1cccc2c1C(=O)c1c(O)c3c(c(O)c1C2=O)C[C@@](O)(C(C)=O)C[C@@H]3O[C@H]1C[C@H](N)[C@H](O)[C@H](C)O1 [Daunomycin] |  |  | −4.38 | −2.71 | 10 | −6.91 |  | Q (charge class) [1]: +; obs–calc (log Po^in situ) [2]: 0.8; pKa ([4]; ref [39]): 12.00; pKa ([4]; second pKa column, ref [39]): 9.70 |
| CN[C@H]1CC[C@@H](c2ccc(Cl)c(Cl)c2)c2ccccc21 [Sertraline] | + | 9.2 |  |  |  |  |  |  |
| Nc1nnc(-c2cccc(Cl)c2Cl)c(N)n1 [Lamotrigine] |  | 5.38 |  |  |  |  |  |  |
| CCCN(CCC)S(=O)(=O)c1ccc(C(=O)O)cc1 [Probenecid] | − |  | −3.52 | −2.97 | 0.06 | −6.10 | −0.7 | obs–calc (log Po^in situ) ([2]; efflux inhibition mdr1a(−/−)): −0.6; pKa ([4]; ref [38]): 3.16 |
| O=C1CC2(CCCC2)CC(=O)N1CCCCN1CCN(c2ncccn2)CC1 [Buspirone] | + |  |  |  |  |  |  | pKa (physchem [9]; pKa): 7.59 |
| CC(=O)CC(c1ccccc1)c1c(O)c2ccccc2oc1=O (centres unmarked) [Warfarin] | − |  | −3.04 | −3.21 | 1.4 | −8.00 |  | obs–calc (log Po^in situ) [2]: 0.4 and 0.5; pKa (physchem [9]): 4.75 |
| COc1cc2nc(N3CCN(C(=O)c4ccco4)CC3)nc(N)c2cc1OC [Prazosin] |  |  |  |  |  |  |  | pKa (physchem [9]; pKa): 6.79 |
| CCC1(C)CC(=O)NC1=O (centres unmarked) [Ethosuximide] | 0 | 9.18 |  | −5.83 | 1.5 | −6.87 | 0.2 |  |
| CN1CCN(C2=Nc3ccccc3Oc3ccc(Cl)cc32)CC1 [Loxapine] |  | 7.78 |  |  | 829 |  |  |  |
| CC(C)(C)NC(=O)[C@@H]1C[C@@H]2CCCC[C@@H]2CN1C[C@@H](O)[C@H](Cc1ccccc1)NC(=O)[C@H](CC(N)=O)NC(=O)c1ccc2ccccc2n1 [Saquinavir] | 0 |  |  |  |  |  |  | obs–calc (log Po^in situ) [2, 11]: −0.1; obs–calc (log Po^in situ) ([2]; efflux inhibition mdr1a(−/−)): 0.5; log Po [3]: −3.82; Pm^7.4 [3]: 114 |
| CN1CCN2c3ncccc3Cc3ccccc3C2C1 (centres unmarked) [Mirtazapine] | 0 | 7.91 | −3.37 | −2.61 | 579 | −5.87 | −0.2 |  |
| CSc1ccc2c(c1)N(CCC1CCCCN1C)c1ccccc1S2 (centres unmarked) [Thioridazine] | + |  | −2.84 | −1.27 | 1972 | −6.23 | −0.8 | pKa ([4]; ref [11]): 8.82 |
| COc1ccc(CCN2CCC(Nc3nc4ccccc4n3Cc3ccc(F)cc3)CC2)cc1 [Astemizole] | + |  | −3.54 | −1.39 | 2422 | −6.54 | −1.3 | obs–calc (log Po^in situ) ([2]; efflux inhibition mdr1a(−/−)): −1.2; pKa ([4]; ref [46]): 8.60; pKa ([4]; second pKa column, ref [46]): 5.84 |
| CN(C)CCC=C1c2ccccc2COc2ccccc21 [Doxepin] | + |  | −3.13 | −1.60 | 223 | −6.47 | 0.3 | pKa ([4]; ref [11]): 9.45 |
| OCCOCCN1CCN(C2=Nc3ccccc3Sc3ccccc32)CC1 [Quetiapine] | 0 |  | −3.88 | −2.98 | 583 | −6.02 |  | obs–calc (log Po^in situ) [2, 11]: 0.2; pKa ([4]; ref [38]): 7.30; pKa ([4]; second pKa column, ref [38]): 2.27 |
| CN1CCN(CCCN2c3ccccc3Sc3ccc(C(F)(F)F)cc32)CC1 [Trifluoperazine] | + | 8.22 | −3.32 | −1.96 | 1442 | −5.94 |  | obs–calc (log Po^in situ) [2, 11]: −1.1 |
| OCCN1CCN(CCCN2c3ccccc3Sc3ccc(C(F)(F)F)cc32)CC1 [Fluphenazine] | + | 7.76 | −3.24 | −2.36 | 1326 | −5.54 | −1.0 |  |
| CCCN1C[C@H](CSC)C[C@@H]2c3cccc4[nH]cc(c34)C[C@H]21 [Pergolide] | + | 9.45 | −3.25 | −1.45 | 315 | −6.20 | 0.4 |  |
| CNS(=O)(=O)Cc1ccc2[nH]cc(CCN(C)C)c2c1 [Sumatriptan] | + | 9.64 | −4.65 | −4.86 | 0.4 | −7.51 |  | obs–calc (log Po^in situ) [2, 11]: 0.0 |
| CN1CCCCC1CCN1c2ccccc2Sc2ccc([S+](C)[O-])cc21 (centres unmarked) [Mesoridazine] | + |  | −3.26 | −4.33 | 14 | −6.21 |  | obs–calc (log Po^in situ) [2, 11]: 0.8; pKa (physchem [9]; pKa): 7.79 |
| COc1ccc(Cl)cc1C(=O)NCCc1ccc(S(=O)(=O)NC(=O)NC2CCCCC2)cc1 [Glibenclamide] | − |  |  |  |  |  |  | Pm^7.4 [3]: 15 |
| CNCC[C@@H](Oc1ccccc1C)c1ccccc1 [Atomoxetine] | + | 9.67 | −3.01 | −1.83 |  | −6.10 | 0.5 |  |
| O=c1n(CCCN2CCN(c3cccc(Cl)c3)CC2)nc2ccccn12 [Trazodone] | 0 | 7.46 | −3.90 | −2.94 | 534 | −5.99 | 0.0 |  |
| Clc1ccc2c(c1)C(N1CCNCC1)=Nc1ccccc1O2 [Amoxapine] | + |  | −3.26 | −2.37 | 289 | −5.98 | −0.4 |  |
| COc1ccc2c3c1O[C@H]1C(=O)CC[C@@]4(O)[C@@H](C2)N(C)CC[C@]314 [Oxycodone] |  | 9 |  |  |  |  |  | Q (charge class) [1]: + |
